Experimental data taken from patent publication US12180207B2 (ARRAY BIOPHARMA INC., priority 2018, dated 2024).

Each molecule was assayed against HEK-293 cells transfected with dox-inducible human wild type FGFR2 (Homo sapiens (Human), UniProt P21802) (assay: FGFR2 pFGFR cell assay (ELISA)). Conditions: HEK-293 dox-inducible FGFR2, 1 hour compound, 30 ng/ml FGF-acidic.
Format: cell-based
Protocol: FGFR2 pFGFR Cell Assay: • HEK-293 cells transfected with dox-inducible human wild type FGFR2 (SEQ ID NO: 3) were plated in a collagen or poly-D-lysine coated 96 well flat bottom plates at 4×10^5 cells/well in complete DMEM medium containing 10% FBS and 1 μg/ml doxycycline and allowed to attach for 24 h at 37° C., 5% CO2. Cells were treated with compound using 1:3 serial dilutions with a maximum final concentration of 5 μM. Compound was incubated on cells for 1 hour at 37° C., 5% CO2. Cells were then stimulated with a final concentration of 30 ng/ml human FGF-acidic (R&D Systems Cat number 232-FA/CF) for 5 minutes at 37° C., 5% CO2. Medium was removed and cells were lysed with lysis buffer containing phosphatase and protease inhibitors. Phospho FGFR2 was measured by ELISA (R&D Systems cat. no. DYC684). The ELISA captures total FGFR2 and detects total phospho tyrosine. Optical density was measured for each well using a Versamax reader at a wavelength of 450 nm. 100 POC was determined using no test compounds and 0 POC was determined using a control compound. The POC values were fit to a 4-parameter logistic curve as a function of the concentration of the compound, and the IC50 value is the point where the curve crosses 50 POC.

Sequence of HEK-293 cells transfected with dox-inducible human wild type FGFR2 (P21802 22-821): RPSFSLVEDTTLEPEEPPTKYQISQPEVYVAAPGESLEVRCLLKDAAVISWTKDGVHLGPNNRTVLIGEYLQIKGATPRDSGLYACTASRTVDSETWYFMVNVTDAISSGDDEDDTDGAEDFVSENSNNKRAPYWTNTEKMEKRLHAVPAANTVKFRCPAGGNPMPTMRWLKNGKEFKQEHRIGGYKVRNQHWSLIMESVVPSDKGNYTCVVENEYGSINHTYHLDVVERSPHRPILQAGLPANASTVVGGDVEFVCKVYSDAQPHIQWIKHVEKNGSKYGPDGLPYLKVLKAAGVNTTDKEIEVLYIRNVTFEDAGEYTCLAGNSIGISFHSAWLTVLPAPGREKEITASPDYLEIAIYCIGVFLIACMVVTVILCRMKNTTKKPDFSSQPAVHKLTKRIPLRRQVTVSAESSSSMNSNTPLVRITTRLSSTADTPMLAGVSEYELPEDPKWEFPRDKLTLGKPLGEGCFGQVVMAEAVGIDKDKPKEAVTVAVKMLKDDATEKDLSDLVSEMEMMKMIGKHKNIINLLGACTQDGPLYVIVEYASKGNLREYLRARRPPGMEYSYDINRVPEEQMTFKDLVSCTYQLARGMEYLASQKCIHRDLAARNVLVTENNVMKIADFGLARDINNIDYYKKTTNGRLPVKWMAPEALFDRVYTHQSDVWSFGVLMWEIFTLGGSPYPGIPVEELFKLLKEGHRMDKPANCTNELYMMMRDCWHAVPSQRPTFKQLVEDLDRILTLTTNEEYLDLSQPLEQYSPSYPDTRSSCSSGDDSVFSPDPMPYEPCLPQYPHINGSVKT

Row | Compound | IC50
1 | C=CC(=O)Nc1ccc(CN2CCC(n3cc(-c4cc(OC)c5c(C#N)cnn5c4)cn3)CC2)cc1 [Example 9, N-(4-((4-(4-(3-cyano-4-methoxypyrazolo[1,5-a]pyridin-6-yl)-1H-pyrazol-1-yl)piperidin-1-yl)methyl)phenyl)acrylamide] | 37 nM
2 | C=CC(=O)N(C)c1ccc(CN2CCC(n3cc(-c4cc(OC)c5c(C#N)cnn5c4)cn3)CC2)cc1 [Example 10, N-(4-((4-(4-(3-cyano-4-methoxypyrazolo[1,5-a]pyridin-6-yl)-1H-pyrazol-1-yl)piperidin-1-yl)methyl)phenyl)-N-methylacrylamide] | 36 nM
3 | C=CC(=O)N1CCC(n2cc(-c3cc(OC)c4c(C#N)cnn4c3)cn2)CC1 [Example 11, 6-(1-(1-acryloylpiperidin-4-yl)-1H-pyrazol-4-yl)-4-methoxypyrazolo[1,5-a]pyridine-3-carbonitrile] | 14 nM
4 | C=CC(=O)N1CC(C(=O)N2CCC3(CC2)CN(c2ccc(-c4cc(OC)c5c(C#N)cnn5c4)cn2)C3)C1 [Example 102, 6-(6-(7-(1-acryloylazetidine-3-carbonyl)-2,7-diazaspiro[3.5]nonan-2-yl)pyridin-3-yl)-4-methoxypyrazolo[1,5-a]pyridine-3-carbonitrile] | 129 nM
5 | C=CC(=O)N1CC(C(=O)N2C[C@@H]3C[C@H]2CN3c2ccc(-c3cc(OC)c4c(C#N)cnn4c3)cn2)C1 [Example 106, 6-(6-((1S,4S)-5-(1-acryloylazetidine-3-carbonyl)-2,5-diazabicyclo[2.2.1]heptan-2-yl)pyridin-3-yl)-4-methoxypyrazolo[1,5-a]pyridine-3-carbonitrile] | 1200 nM
6 | C=CC(=O)N1CC(CN2C[C@H]3C[C@@H]2CN3c2ccc(-c3cc(OC)c4c(C#N)cnn4c3)cn2)C1 [Example 108, 6-(6-((1R,4R)-5-((1-acryloylazetidin-3-yl)methyl)-2,5-diazabicyclo[2.2.1]heptan-2-yl)pyridin-3-yl)-4-methoxypyrazolo[1,5-a]pyridine-3-carbonitrile] | 236 nM
7 | C=CC(=O)N1CC(C(=O)N2CCN(c3ccc(-c4cc(OC)c5c(C#N)cnn5c4)cn3)CC2)C1 [Example 111, 6-(6-(4-(1-acryloylazetidine-3-carbonyl)piperazin-1-yl)pyridin-3-yl)-4-methoxypyrazolo[1,5-a]pyridine-3-carbonitrile] | 348 nM
8 | C=CC(=O)N1CC(OC)(C(=O)N2CCC(n3ncc(-c4cc(OC)c5c(Cl)cnn5c4)c3C)CC2)C1 [Example 117, 1-(3-(4-(4-(3-chloro-4-methoxypyrazolo[1,5-a]pyridin-6-yl)-5-methyl-1H-pyrazol-1-yl)piperidine-1-carbonyl)-3-methoxyazetidin-1-yl)prop-2-en-1-one] | 283 nM
9 | C=CC(=O)N1CC(CN2CCC(n3ncc(-c4cc(OC)c5c(Cl)cnn5c4)c3C)CC2)C1 [Example 118, 1-(3-((4-(4-(3-chloro-4-methoxypyrazolo[1,5-a]pyridin-6-yl)-5-methyl-1H-pyrazol-1-yl)piperidin-1-yl)methyl)azetidin-1-yl)prop-2-en-1-one] | 267 nM
10 | C=CC(=O)N1CC(CN2CCC(n3ncc(-c4cc(OC)c5c(Cl)cnn5c4)c3C)CC2)(OC)C1 [Example 119, 1-(3-((4-(4-(3-chloro-4-methoxypyrazolo[1,5-a]pyridin-6-yl)-5-methyl-1H-pyrazol-1-yl)piperidin-1-yl)methyl)-3-methoxyazetidin-1-yl)prop-2-en-1-one] | 322 nM
11 | C=CC(=O)N1CCN(C(=O)N2CCC(n3cc(-c4cc(OC)c5c(C#N)cnn5c4)cn3)CC2)C[C@@H]1CC#N [Example 135, (S)-6-(1-(1-(4-acryloyl-3-(cyanomethyl)piperazine-1-carbonyl)piperidin-4-yl)-1H-pyrazol-4-yl)-4-methoxypyrazolo[1,5-a]pyridine-3-carbonitrile] | 83 nM
12 | COc1cc(-c2cnn(C3CCN(C(=O)C4(F)CN(C(=O)/C=C/CN(C)C)C4)CC3)c2C)cn2ncc(C#N)c12 [Example 153, (E)-6-(1-(1-(1-(4-(dimethylamino)but-2-enoyl)-3-fluoroazetidine-3-carbonyl)piperidin-4-yl)-5-methyl-1H-pyrazol-4-yl)-4-methoxypyrazolo [1,5-a]pyridine-3-carbonitrile] | 188 nM
13 | COC/C=C/C(=O)N1CC(F)(C(=O)N2CCC(n3ncc(-c4cc(OC)c5c(C#N)cnn5c4)c3C)CC2)C1 [Example 154, (E)-6-(1-(1-(3-fluoro-1-(4-methoxybut-2-enoyl)azetidine-3-carbonyl)piperidin-4-yl)-5-methyl-1H-pyrazol-4-yl)-4-methoxypyrazolo [1,5-a]pyridine-3-carbonitrile] | 327 nM
14 | CC#CC(=O)N1CC(F)(C(=O)N2CCC(n3ncc(-c4cc(OC)c5c(C#N)cnn5c4)c3C)CC2)C1 [Example 156, 6-(1-(1-(1-(but-2-ynoyl)-3-fluoroazetidine-3-carbonyl)piperidin-4-yl)-5-methyl-1H-pyrazol-4-yl)-4-methoxypyrazolo [1,5-a]pyridine-3-carbonitrile] | 244 nM
15 | COc1cc(-c2cnn(C3CCN(C(=O)C4(OC)CN(C(=O)/C=C/CN(C)C)C4)CC3)c2C)cn2ncc(C#N)c12 [Example 158, (E)-6-(1-(1-(1-(4-(dimethylamino)but-2-enoyl)-3-methoxyazetidine-3-carbonyl)piperidin-4-yl)-5-methyl-1H-pyrazol-4-yl)-4-methoxypyrazolo [1,5-a]pyridine-3-carbonitrile] | 1550 nM
16 | COc1cc(-c2cnn(C3CCN(CC4(OC)CN(C(=O)/C=C/CN(C)C)C4)CC3)c2C)cn2ncc(C#N)c12 [Example 159, (E)-6-(1-(1-((1-(4-(dimethylamino)but-2-enoyl)-3-methoxyazetidin-3-yl)methyl)piperidin-4-yl)-5-methyl-1H-pyrazol-4-yl)-4-methoxypyrazolo [1,5-a]pyridine-3-carbonitrile] | 451 nM
17 | COc1cc(-c2c(C)nn(C3CCN(C(=O)C4(F)CN(C(=O)/C=C/CN(C)C)C4)CC3)c2C)cn2ncc(C#N)c12 [Example 161, (E)-6-(1-(1-(1-(4-(dimethylamino)but-2-enoyl)-3-fluoroazetidine-3-carbonyl)piperidin-4-yl)-3,5-dimethyl-1H-pyrazol-4-yl)-4-methoxypyrazolo [1,5-a]pyridine-3-carbonitrile] | 537 nM
18 | COc1cc(-c2nnn(C3CCN(C(=O)C4(F)CN(C(=O)/C=C/CN(C)C)C4)CC3)c2C)cn2ncc(C#N)c12 [Example 164, (E)-6-(1-(1-(1-(4-(dimethylamino)but-2-enoyl)-3-fluoroazetidine-3-carbonyl)piperidin-4-yl)-5-methyl-1H-1,2,3-triazol-4-yl)-4-methoxypyrazolo [1,5-a]pyridine-3-carbonitrile] | 1180 nM
19 | COc1cc(-c2cnn(C3CCN(C(=O)C4(F)CN(C(=O)/C=C/CN(C)C)C4)CC3)c2C)cn2ncc(Cl)c12 [Example 170, (E)-1-(3-(4-(4-(3-chloro-4-methoxypyrazolo [1,5-a]pyridin-6-yl)-5-methyl-1H-pyrazol-1-yl)piperidine-1-carbonyl)-3-fluoroazetidin-1-yl)-4-(dimethylamino)but-2-en-1-one] | 171 nM
20 | COc1cc(-c2cnn(C3CCN(C(=O)C4(OC)CN(C(=O)/C=C/CN(C)C)C4)CC3)c2C)cn2ncc(Cl)c12 [Example 171, (E)-1-(3-(4-(4-(3-chloro-4-methoxypyrazolo [1,5-a]pyridin-6-yl)-5-methyl-1H-pyrazol-1-yl)piperidine-1-carbonyl)-3-methoxyazetidin-1-yl)-4-(dimethylamino)but-2-en-1-one] | 263 nM
21 | COc1cc(-c2cnn(C3CCN(C(=O)C4CN(C(=O)C#CCO)C4)CC3)c2)cn2ncc(C#N)c12 [Example 179, 6-(1-(1-(1-(4-hydroxybut-2-ynoyl)azetidine-3-carbonyl)piperidin-4-yl)-1H-pyrazol-4-yl)-4-methoxypyrazolo[1,5-a]pyridine-3-carbonitrile] | 1680 nM
22 | COc1cc(-c2cnn(C3CCN(C(=O)C4CN(C(=O)/C=C/CCl)C4)CC3)c2)cn2ncc(C#N)c12 [Example 181, (E)-6-(1-(1-(1-(4-chlorobut-2-enoyl)azetidine-3-carbonyl)piperidin-4-yl)-1H-pyrazol-4-yl)-4-methoxypyrazolo[1,5-a]pyridine-3-carbonitrile] | 292 nM
23 | C=CS(=O)(=O)N1CCC(C(=O)N2CCC(n3cc(-c4cc(OC)c5c(C#N)cnn5c4)cn3)CC2)CC1 [Example 186, 4-methoxy-6-(1-(1-(1-(vinylsulfonyl)piperi-dine-4-carbonyl)piperidin-4-yl)-1H-pyrazol-4-yl)pyrazolo[1,5-a]pyridine-3-carbonitrile] | 42 nM
